Results on 12 compounds are retold here after PubChem BioAssay AID272 (DTP/NCI, 2004).

Where “and” joins values, the source holds several entries; their conditions need not be identical. Equal entries are not always repeated. Results filed as inconclusive are left out.

This experiment concerns Lewis lung carcinoma i.m., BDF1 mice, T/C %. Kind of experiment: NCI In Vivo Anticancer Drug Screen. Data for tumor model Lewis Lung Carcinoma (intramuscular) in B6D2F1 (BDF1) mice. Here is the method: The antitumor activity of compounds was measured in mice bearing transplantable tumors. Survival or tumor size were measured and the results are expressed as the measurement made in the treated group (T) divided by the measurement made in the vehicle treated control group (C). The tumor model used in this assay is Lewis Lung Carcinoma (intramuscular) in B6D2F1 (BDF1) mice

Setting [1] is: endpoint: median survival time, dose: 25.0 mg/kg/injection, schedule: Q01DX011 (ip), vehicle: saline with Tween-80, higher = longer survival.
Setting [2] is: endpoint: median survival time, dose: 50.0 mg/kg/injection, schedule: Q01DX011 (ip), vehicle: saline with Tween-80, higher = longer survival.

In the case of `Oc1ccc(I)c2cccnc12`, the T/C runs as follows: (endpoint: mean tumor weight (est.), dose: 100.0 mg/kg/injection, schedule: Q01DX011 (ip), vehicle: saline, higher = larger tumour) 109 % of control; (endpoint: median survival time, dose: 100.0 mg/kg/injection, schedule: Q01DX011 (ip), vehicle: saline, higher = longer survival) 95 % of control.
Consider `O=C1CCCN1.O=C1CCCN1.[Br][Co][Br]`, for which the T/C was 84 % of control (endpoint: mean tumor weight, dose: 37.5 mg/kg/injection, schedule: Q01DX011 (ip), vehicle: water, higher = larger tumour); 65 % of control (endpoint: mean tumor weight, dose: 75.0 mg/kg/injection, schedule: Q01DX011 (ip), vehicle: water, higher = larger tumour); 95 % of control (endpoint: median survival time, dose: 37.5 mg/kg/injection, schedule: Q01DX011 (ip), vehicle: water, higher = longer survival); 110 % of control (endpoint: median survival time, dose: 75.0 mg/kg/injection, schedule: Q01DX011 (ip), vehicle: water, higher = longer survival).
As to `OC1CCCC2CCC[N-]C12.OC1CCCC2CCC[N-]C12.[O]=[V][OH]` (stereo unspecified), the T/C was 86 % of control (endpoint: mean tumor weight (est.), dose: 6.25 mg/kg/injection, schedule: Q01DX011 (ip), vehicle: saline, higher = larger tumour); 70 % of control (endpoint: mean tumor weight (est.), dose: 12.5 mg/kg/injection, schedule: Q01DX011 (ip), vehicle: saline, higher = larger tumour); 50 % of control (endpoint: mean tumor weight (est.), dose: 25.0 mg/kg/injection, schedule: Q01DX011 (ip), vehicle: saline, higher = larger tumour); 101 % of control (endpoint: median survival time, dose: 6.25 mg/kg/injection, schedule: Q01DX011 (ip), vehicle: saline, higher = longer survival); 107 % of control (endpoint: median survival time, dose: 12.5 mg/kg/injection, schedule: Q01DX011 (ip), vehicle: saline, higher = longer survival); 107 % of control (endpoint: median survival time, dose: 25.0 mg/kg/injection, schedule: Q01DX011 (ip), vehicle: saline, higher = longer survival).
On to `CN=C1N[N+]2=CCCCC2S1` (stereo unspecified), for which the T/C is 99 % of control (endpoint: median survival time, dose: 40.0 mg/kg/injection, schedule: Q02DX011 (ip), vehicle: saline with Tween-80, higher = longer survival); 86 % of control (endpoint: median survival time, dose: 60.0 mg/kg/injection, schedule: Q02DX011 (ip), vehicle: saline with Tween-80, higher = longer survival); 93 % of control (endpoint: median survival time, dose: 80.0 mg/kg/injection, schedule: Q02DX011 (ip), vehicle: saline with Tween-80, higher = longer survival).
As for `CS(=O)(=O)c1cc(C(F)(F)F)cc([N+](=O)[O-])c1Cl`, the T/C (endpoint: mean tumor weight (est.), dose: 25.0 mg/kg/injection, schedule: Q01DX011 (ip), vehicle: saline with Tween-80, higher = larger tumour) was 108 % of control; the T/C (endpoint: mean tumor weight (est.), dose: 50.0 mg/kg/injection, schedule: Q01DX011 (ip), vehicle: saline with Tween-80, higher = larger tumour) is 63 % of control; the T/C under setting [1] was 115 % of control; the T/C under setting [2] is 111 % of control.
Turning to `O=c1[nH]cc(F)c(=O)[nH]1`, the T/C is, setting by setting: (endpoint: mean tumor weight (est.), dose: 10.0 mg/kg/injection, schedule: Q01DX011 (ip), vehicle: saline with Tween-80, higher = larger tumour) 37 % of control; (endpoint: mean tumor weight (est.), dose: 20.0 mg/kg/injection, schedule: Q01DX011 (ip), vehicle: saline with Tween-80, higher = larger tumour) 9 % of control; (endpoint: mean tumor weight, dose: 5.0 mg/kg/injection, schedule: Q01DX011 (ip), vehicle: other, higher = larger tumour) 93 % of control; (endpoint: mean tumor weight, dose: 5.0 mg/kg/injection, schedule: Q01DX011 (ip), vehicle: saline, higher = larger tumour) 71 % of control; (endpoint: mean tumor weight, dose: 10.0 mg/kg/injection, schedule: Q01DX011 (ip), vehicle: other, higher = larger tumour) 46 % of control; (endpoint: mean tumor weight, dose: 10.0 mg/kg/injection, schedule: Q01DX011 (ip), vehicle: saline, higher = larger tumour) 51 % of control and 57 % of control. In addition, the T/C was 18 % of control (endpoint: mean tumor weight, dose: 20.0 mg/kg/injection, schedule: Q01DX011 (ip), vehicle: other, higher = larger tumour); 5 % of control (endpoint: mean tumor weight, dose: 20.0 mg/kg/injection, schedule: Q01DX011 (ip), vehicle: saline, higher = larger tumour); 100 % of control (endpoint: median survival time, dose: 5.0 mg/kg/injection, schedule: Q01DX011 (ip), vehicle: other, higher = longer survival); 112 % of control (endpoint: median survival time, dose: 6.3 mg/kg/injection, schedule: Q04DX004 (ip), vehicle: saline, higher = longer survival); 112 % of control (endpoint: median survival time, dose: 10.0 mg/kg/injection, schedule: Q01DX009 (ip), vehicle: saline, higher = longer survival); 96 % of control (endpoint: median survival time, dose: 10.0 mg/kg/injection, schedule: Q01DX011 (ip), vehicle: other, higher = longer survival). Further, the T/C (endpoint: median survival time, dose: 12.5 mg/kg/injection, schedule: Q04DX004 (ip), vehicle: saline, higher = longer survival) is 116 % of control; the T/C (endpoint: median survival time, dose: 20.0 mg/kg/injection, schedule: Q01DX009 (ip), vehicle: saline, higher = longer survival) was 119 % of control; the T/C (endpoint: median survival time, dose: 20.0 mg/kg/injection, schedule: Q01DX011 (ip), vehicle: other, higher = longer survival) is 122 % of control; the T/C (endpoint: median survival time, dose: 25.0 mg/kg/injection, schedule: Q04DX004 (ip), vehicle: saline, higher = longer survival) is 108 % of control; the T/C (endpoint: median survival time, dose: 50.0 mg/kg/injection, schedule: Q04DX004 (ip), vehicle: saline, higher = longer survival) was 89 % of control.
For `Nc1nc(N)c2nc(CNc3ccc(C(=O)NC(CCC(=O)O)C(=O)O)cc3)cnc2n1` (stereo unspecified), the T/C runs as follows: (endpoint: median survival time, dose: 4.0 micrograms/kg/injection, schedule: Q01DX011 (ip), vehicle: other, higher = longer survival) 97 % of control; (endpoint: median survival time, dose: 8.0 micrograms/kg/injection, schedule: Q01DX011 (ip), vehicle: other, higher = longer survival) 86 % of control; (endpoint: median survival time, dose: 16.0 micrograms/kg/injection, schedule: Q01DX011 (ip), vehicle: other, higher = longer survival) 100 % of control; (endpoint: median survival time, dose: 32.0 micrograms/kg/injection, schedule: Q01DX011 (ip), vehicle: other, higher = longer survival) 109 % of control; (endpoint: median survival time, dose: 65.0 micrograms/kg/injection, schedule: Q01DX011 (ip), vehicle: other, higher = longer survival) 95 % of control.
In the case of `CCCCCCCCCCCCCCCC(=O)OCC1OC(n2ccc(N)nc2=O)C(O)C1O` (stereo unspecified), the T/C (endpoint: mean tumor weight (est.), dose: 7.5 mg/kg/injection, schedule: Q01DX009 (ip), vehicle: saline, higher = larger tumour) is 76 % of control; the T/C (endpoint: mean tumor weight (est.), dose: 15.0 mg/kg/injection, schedule: Q01DX009 (ip), vehicle: saline, higher = larger tumour) was 39 % of control; the T/C (endpoint: mean tumor weight (est.), dose: 25.0 mg/kg/injection, schedule: Q04DX003 (ip), vehicle: saline, higher = larger tumour) is 67 % of control; the T/C (endpoint: mean tumor weight (est.), dose: 37.5 mg/kg/injection, schedule: Q01DX001 (ip), vehicle: saline, higher = larger tumour) was 45 % of control; the T/C (endpoint: mean tumor weight (est.), dose: 50.0 mg/kg/injection, schedule: Q04DX003 (ip), vehicle: saline, higher = larger tumour) was 19 % of control; the T/C (endpoint: mean tumor weight (est.), dose: 75.0 mg/kg/injection, schedule: Q01DX001 (ip), vehicle: saline, higher = larger tumour) is 19 % of control. The T/C runs as follows: (endpoint: mean tumor weight (est.), dose: 150.0 mg/kg/injection, schedule: Q01DX001 (ip), vehicle: saline, higher = larger tumour) 46 % of control; (endpoint: median survival time, dose: 37.5 mg/kg/injection, schedule: Q01DX001 (ip), vehicle: saline, higher = longer survival) 93 % of control; (endpoint: median survival time, dose: 150.0 mg/kg/injection, schedule: Q01DX001 (ip), vehicle: saline, higher = longer survival) 113 % of control.
On to `Nc1nc(CCl)nc(Nc2ccccc2)n1`, for which the T/C reads like this: (endpoint: mean tumor weight (est.), dose: 100.0 mg/kg/injection, schedule: Q01DX011 (ip), vehicle: saline with Tween-80, higher = larger tumour) 61 % of control; (endpoint: median survival time, dose: 100.0 mg/kg/injection, schedule: Q01DX011 (ip), vehicle: saline with Tween-80, higher = longer survival) 100 % of control.
Consider `O=[N+]([O-])c1cc([N+](=O)[O-])c(Nn2c3ccccc3c3ccccc32)c([N+](=O)[O-])c1`, for which the T/C was 97 % of control (endpoint: median survival time, dose: 12.5 mg/kg/injection, schedule: Q01DX011 (ip), vehicle: saline with Tween-80, higher = longer survival); 102 % of control under setting [1]; 108 % of control under setting [2].
`OCC1OC(n2cnc3c(=S)nc[nH]c32)C(O)C1O` (stereo unspecified): the T/C (endpoint: mean tumor weight (est.), dose: 1.56 mg/kg/injection, schedule: Q01DX011 (ip), vehicle: other, higher = larger tumour) was 100 % of control; the T/C (endpoint: mean tumor weight (est.), dose: 3.12 mg/kg/injection, schedule: Q01DX011 (ip), vehicle: other, higher = larger tumour) was 78 % of control; the T/C (endpoint: mean tumor weight (est.), dose: 25.0 mg/kg/injection, schedule: Q01DX011 (ip), vehicle: other, higher = larger tumour) was 96 % of control; the T/C (endpoint: median survival time, dose: 0.78 mg/kg/injection, schedule: Q01DX011 (ip), vehicle: other, higher = longer survival) was 108 % of control; the T/C (endpoint: median survival time, dose: 1.56 mg/kg/injection, schedule: Q01DX011 (ip), vehicle: other, higher = longer survival) is 114 % of control and 120 % of control; the T/C (endpoint: median survival time, dose: 3.12 mg/kg/injection, schedule: Q01DX011 (ip), vehicle: other, higher = longer survival) is 95 % of control. In addition, the T/C (endpoint: median survival time, dose: 6.25 mg/kg/injection, schedule: Q01DX011 (ip), vehicle: other, higher = longer survival) is 110 % of control and the T/C (endpoint: median survival time, dose: 12.5 mg/kg/injection, schedule: Q01DX011 (ip), vehicle: other, higher = longer survival) is 112 % of control.
As to `C[N+](C)(C)c1cc2c(nn1)Nc1ccccc1S2`, the T/C (endpoint: mean tumor weight (est.), dose: 1.06 mg/kg/injection, schedule: Q01DX011 (ip), vehicle: saline, higher = larger tumour) is 83 % of control; the T/C (endpoint: mean tumor weight (est.), dose: 2.12 mg/kg/injection, schedule: Q01DX011 (ip), vehicle: saline, higher = larger tumour) is 88 % of control; the T/C (endpoint: mean tumor weight (est.), dose: 4.25 mg/kg/injection, schedule: Q01DX011 (ip), vehicle: saline, higher = larger tumour) was 69 % of control; the T/C (endpoint: mean tumor weight (est.), dose: 8.5 mg/kg/injection, schedule: Q01DX011 (ip), vehicle: saline, higher = larger tumour) is 110 % of control; the T/C (endpoint: median survival time, dose: 1.06 mg/kg/injection, schedule: Q01DX011 (ip), vehicle: saline, higher = longer survival) was 103 % of control; the T/C (endpoint: median survival time, dose: 2.12 mg/kg/injection, schedule: Q01DX011 (ip), vehicle: saline, higher = longer survival) is 100 % of control. The T/C reads like this: (endpoint: median survival time, dose: 4.25 mg/kg/injection, schedule: Q01DX011 (ip), vehicle: saline, higher = longer survival) 105 % of control; (endpoint: median survival time, dose: 8.5 mg/kg/injection, schedule: Q01DX011 (ip), vehicle: saline, higher = longer survival) 96 % of control.
